Reference: US20260274814A1, “THIENYL COMPOUNDS FOR THE TREATMENT OF A CENTRAL NERVOUS SYSTEM DISEASE OR DISORDER” (Coreterra Therapeutics, Inc., priority 2023, published 2026)
Structures can show the parent of a compound that is named as a salt.

Tested on: mice
Experiment: Neuropharmacological Assay (SmartCube): automated behavioral signature of compound-treated mice compared with a database of reference drug classes
Assay type: in vivo
Settings: for AD / AG / AN / AP / AX / CE / HL / MS / PS / SH / UK: SmartCube class probability, 3.0 mg/kg i.p., 15 min before test; for MED / minimal effective dose: minimal effective dose: dose having 45% or more total activity in SmartCube, i.p., if only one dose tested, that dose is shown; for minimal effective dose: Mus musculus, ip, read-out: MED
Summary of the method: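 i.p. dosing 15 min pre-test (NMP/PEG/propylene glycol vehicle); 3 doses, 3.0 mg/kg reported. Output = class-match probability per behavioural effect. Potency runs 0.3, 1, 3, 10 mpk (range adjusted as needed); MED = dose with ≥45% total activity.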

c1scc2c1CCC(NC1CCC1)C2 (single isomer, unassigned) [Compound 161, N-cyclobutyl-4,5,6,7-tetrahydro-2-benzothiophen-5-amine hydrochloride]
AD: ND (^ <4%) | AG: ND (^ <4%) | AN: ND (^ <4%) | AP: ND (^ <4%) | AX: ND (^ <4%) | CE: ND (^ <4%) | HL: ND (^ <4%) | MS: ND (^ <4%) | PS: ND (^ <4%) | SH: ND (^ <4%) | UK (hydrochloride, 3 mg/kg): ND (^ <4%) | MED: >3 mpk

Cc1scc2c1CC(N)CC2 (single isomer, unassigned) [Compound 162, 3-methyl-4,5,6,7-tetrahydro-2-benzothiophen-5-amine hydrochloride]
minimal effective dose: 3 mg/kg | AD: ND (^ <4%) | AG: ND (^ <4%) | AN: ND (^ <4%) | AP: ND (^ <4%) | CE: ND (^ <4%) | HL: ND (^ <4%) | MS: ND (^ <4%) | PS: ND (^ <4%) | SH: ND (^ <4%) | UK: + (≥4%) | AX (hydrochloride, 3 mg/kg): +++ (≥49%)

Cc1scc2c1CC(N)CC2 (single isomer, unassigned) [Compound 163, 3-methyl-4,5,6,7-tetrahydro-2-benzothiophen-5-amine hydrochloride]
AD: ND (^ <4%) | AG: ND (^ <4%) | AN: ND (^ <4%) | AP: ND (^ <4%) | CE: ND (^ <4%) | HL: ND (^ <4%) | MS: ND (^ <4%) | PS: ND (^ <4%) | SH: ND (^ <4%) | UK: + (≥4%) | AX (hydrochloride, 3 mg/kg): ND (^ <4%) | MED (hydrochloride): >3 mpk

Cc1scc2c1CCC(N)C2 (single isomer, unassigned) [Compound 164, 1-methyl-4,5,6,7-tetrahydro-2-benzothiophen-5-amine hydrochloride]
minimal effective dose: 3 mg/kg | AG: ND (^ <4%) | AN: ND (^ <4%) | AP: ND (^ <4%) | AX: ND (^ <4%) | CE: ND (^ <4%) | MS: ND (^ <4%) | PS: ND (^ <4%) | SH: ND (^ <4%) | UK: ND (^ <4%) | AD (hydrochloride, 3 mg/kg): +++ (≥49%) | HL (hydrochloride, 3 mg/kg): ND (^ <4%)

Cc1scc2c1CCC(N)C2 (single isomer, unassigned) [Compound 165, 1-methyl-4,5,6,7-tetrahydro-2-benzothiophen-5-amine hydrochloride]
AG: ND (^ <4%) | AN: ND (^ <4%) | AP: ND (^ <4%) | AX: ND (^ <4%) | CE: ND (^ <4%) | MS: ND (^ <4%) | PS: ND (^ <4%) | SH: ND (^ <4%) | UK: ND (^ <4%) | AD (hydrochloride, 3 mg/kg): ND (^ <4%) | HL (hydrochloride, 3 mg/kg): ++++ (≥74%) | MED: 3 mpk

NC1CCc2cscc2C1 (single isomer, unassigned) [Compound 166, 4,5,6,7-tetrahydro-2-benzothiophen-5-amine hydrochloride]
minimal effective dose: 1 mg/kg | AG: ND (^ <4%) | AN: ND (^ <4%) | AX: +++ (≥49%) | CE: ND (^ <4%) | HL: ND (^ <4%) | MS: ND (^ <4%) | SH: ND (^ <4%) | UK: ND (^ <4%) | AD (hydrochloride, 3 mg/kg): + (≥4%) | AP (hydrochloride, 3 mg/kg): ++ (≥24%) | PS (hydrochloride, 3 mg/kg): ND (^ <4%)

NC1CCc2cscc2C1 (single isomer, unassigned) [Compound 167, 4,5,6,7-tetrahydro-2-benzothiophen-5-amine hydrochloride]
AG: ND (^ <4%) | AN: ND (^ <4%) | AX: +++ (≥49%) | CE: ND (^ <4%) | HL: ND (^ <4%) | MS: ND (^ <4%) | SH: ND (^ <4%) | UK: ND (^ <4%) | AD (hydrochloride, 3 mg/kg): ++ (≥24%) | AP (hydrochloride, 3 mg/kg): ND (^ <4%) | PS (hydrochloride, 3 mg/kg): + (≥4%) | MED: 1 mpk

CNC1CCCc2cscc2C1 (single isomer, unassigned) [Compound 169, N-methyl-5,6,7,8-tetrahydro-4H-cyclohepta[c]thiophen-5-amine hydrochloride]
AD: ND (^ <4%) | AG: ND (^ <4%) | AN: ND (^ <4%) | CE: ND (^ <4%) | HL: ND (^ <4%) | MS: ND (^ <4%) | PS: ND (^ <4%) | SH: ND (^ <4%) | AP (hydrochloride, 3 mg/kg): ND (^ <4%) | AX (hydrochloride, 3 mg/kg): ND (^ <4%) | UK (hydrochloride, 3 mg/kg): ++ (≥24%) | MED (hydrochloride): 3 mpk

CNC1CCCc2cscc2C1 (single isomer, unassigned) [Compound 170, N-methyl-5,6,7,8-tetrahydro-4H-cyclohepta[c]thiophen-5-amine hydrochloride]
AD: ND (^ <4%) | AG: ND (^ <4%) | AN: ND (^ <4%) | CE: ND (^ <4%) | HL: ND (^ <4%) | MS: ND (^ <4%) | PS: ND (^ <4%) | SH: ND (^ <4%) | AP (hydrochloride, 3 mg/kg): +++ (≥49%) | AX (hydrochloride, 3 mg/kg): ++ (≥24%) | UK (hydrochloride, 3 mg/kg): ND (^ <4%) | MED (hydrochloride): 1 mpk

CCNC1CCc2cscc2C1 (single isomer, unassigned) [Compound 171, N-ethyl-4,5,6,7-tetrahydro-2-benzothiophen-5-amine hydrochloride]
AD: ND (^ <4%) | AG: ND (^ <4%) | AN: ND (^ <4%) | CE: ND (^ <4%) | HL: ND (^ <4%) | MS: ND (^ <4%) | PS: ND (^ <4%) | SH: ND (^ <4%) | UK: ND (^ <4%) | AP (hydrochloride, 3 mg/kg): ++++ (≥74%) | AX (hydrochloride, 3 mg/kg): ND (^ <4%) | MED (hydrochloride): 3 mpk

CCNC1CCc2cscc2C1 (single isomer, unassigned) [Compound 172, N-ethyl-4,5,6,7-tetrahydro-2-benzothiophen-5-amine hydrochloride]
AD: ND (^ <4%) | AG: ND (^ <4%) | AN: ND (^ <4%) | CE: ND (^ <4%) | HL: ND (^ <4%) | MS: ND (^ <4%) | PS: ND (^ <4%) | SH: ND (^ <4%) | UK: ND (^ <4%) | AP (hydrochloride, 3 mg/kg): ND (^ <4%) | AX (hydrochloride, 3 mg/kg): ++++ (≥74%) | MED (hydrochloride): 1 mpk

CNC1CCc2scc(C#N)c2C1 (single isomer, unassigned) [Compound 174, 5-(methylamino)-4,5,6,7-tetrahydrobenzothiophene-3-carbonitrile hydrochloride]
AD: ND (^ <4%) | AG: ND (^ <4%) | AN: ND (^ <4%) | AP: ND (^ <4%) | CE: ND (^ <4%) | HL: ND (^ <4%) | MS: ND (^ <4%) | PS: ND (^ <4%) | SH: + (≥4%) | UK: ND (^ <4%) | AX (hydrochloride, 3 mg/kg): ND (^ <4%) | MED (hydrochloride): 1 mpk

CNC1CCc2scc(C#N)c2C1 (single isomer, unassigned) [Compound 175, 5-(methylamino)-4,5,6,7-tetrahydrobenzothiophene-3-carbonitrile hydrochloride]
AD: ND (^ <4%) | AG: ND (^ <4%) | AN: ND (^ <4%) | AP: ND (^ <4%) | CE: ND (^ <4%) | HL: ND (^ <4%) | MS: ND (^ <4%) | PS: ND (^ <4%) | SH: + (≥4%) | UK: ND (^ <4%) | AX (hydrochloride, 3 mg/kg): +++ (≥49%) | MED (hydrochloride): 3 mpk

N#Cc1csc2c1CC(N)CC2 (single isomer, unassigned) [Compound 176, 5-amino-4,5,6,7-tetrahydrobenzo[b]thiophene-3-carbonitrile hydrochloride]
minimal effective dose: > 3 mg/kg | AD: ND (^ <4%) | AG: ND (^ <4%) | AN: ND (^ <4%) | AP: ND (^ <4%) | AX: ND (^ <4%) | CE: ND (^ <4%) | HL: ND (^ <4%) | MS: ND (^ <4%) | PS: ND (^ <4%) | SH: ND (^ <4%) | UK (hydrochloride, 3 mg/kg): ND (^ <4%)

N#Cc1csc2c1CC(N)CC2 (single isomer, unassigned) [Compound 177, 5-amino-4,5,6,7-tetrahydrobenzo[b]thiophene-3-carbonitrile hydrochloride]
AD: ND (^ <4%) | AG: ND (^ <4%) | AN: ND (^ <4%) | AP: ND (^ <4%) | AX: ND (^ <4%) | CE: ND (^ <4%) | HL: ND (^ <4%) | MS: ND (^ <4%) | PS: ND (^ <4%) | SH: ND (^ <4%) | UK (hydrochloride, 3 mg/kg): ++++ (≥74%) | MED (hydrochloride): 3 mpk

CNC1(C)CCc2sccc2C1 (single isomer, unassigned) [Compound 178, N, 5-dimethyl-6,7-dihydro-4H-benzothiophen-5-amine hydrochloride]
AG: ND (^ <4%) | AP: ND (^ <4%) | AX: ND (^ <4%) | CE: ND (^ <4%) | HL: ND (^ <4%) | MS: ND (^ <4%) | SH: ND (^ <4%) | UK: ND (^ <4%) | AD (hydrochloride, 3 mg/kg): + (≥4%) | AN (hydrochloride, 3 mg/kg): ND (^ <4%) | PS (hydrochloride, 3 mg/kg): ++++ (≥74%) | MED (hydrochloride): 1 mpk
